Reference: patent US20260217735A1, “HETEROCYCLES AND USES THEREOF” (Kumquat Biosciences Inc., priority 2023, published 2026)

How the values were obtained:
KRAS G12D = molecular target: T1, KRAS G12D (Homo sapiens, UniProt P01116, G12D); experiment: HTRF assay, KRAS G12D interaction with SOS1; format: biochemical; settings: bins <500 nM / 500 nM to 1000 nM, read-out: Inhibition of KRAS G12D (IC50)
T1 construct: made in house; host or cells: E. coli, e.g. BL21 (DE3)

KRAS WT = molecular target: T2, KRAS WT (Homo sapiens, UniProt P01116); experiment: HTRF assay, wildtype KRAS interaction with SOS1; format: biochemical; settings: bins <500 nM / 500 nM to 1000 nM, read-out: Inhibition of KRAS WT (IC50)
T2 construct: made in house; host or cells: E. coli, e.g. BL21 (DE3)

KRAS G12V = molecular target: T3, KRAS G12V (Homo sapiens, UniProt P01116, G12V); experiment: HTRF assay, KRAS G12V interaction with SOS1; format: biochemical; settings: bins <500 nM / 500 nM to 1000 nM, read-out: Inhibition of KRAS G12V (IC50)
T3 construct: made in house; host or cells: E. coli, e.g. BL21 (DE3)

KRAS G12S = molecular target: T4, KRAS G12S (Homo sapiens, UniProt P01116, G12S); experiment: HTRF assay, KRAS G12S interaction with SOS1; format: biochemical; settings: bins <500 nM / 500 nM to 1000 nM, read-out: Inhibition of KRAS G12S (IC50)
T4 construct: made in house; host or cells: E. coli, e.g. BL21 (DE3)

MiaPaca2 cells = experiment: Ras cellular assay, growth of cells with K-Ras G12C mutation; format: cell-based; settings: Homo sapiens, MIA PaCa-2; cell proliferation assay; bins ≤500 nM / >500 nM; read-out: Inhibition of MiaPaca2 Cells (IC50)
Method in brief: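 Anchorage-independent growth: G12C-mutant MIA PaCa-2 plated in soft agar, time-zero plate read the next day when compound was dosed (final DMSO 0.3%). After growth to day 10, MTS-type absorbance at 490/660 nm relative to time zero gave IC50 via four-parameter fitting.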

T2 sequence (P01116 1-188 isoform P01116-2): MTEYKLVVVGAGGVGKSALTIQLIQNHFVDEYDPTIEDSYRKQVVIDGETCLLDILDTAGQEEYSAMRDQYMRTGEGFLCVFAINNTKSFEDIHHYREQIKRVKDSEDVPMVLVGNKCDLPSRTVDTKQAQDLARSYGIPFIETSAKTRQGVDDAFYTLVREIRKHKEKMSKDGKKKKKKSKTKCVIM
T3 sequence (P01116 1-188 isoform P01116-2 G12V): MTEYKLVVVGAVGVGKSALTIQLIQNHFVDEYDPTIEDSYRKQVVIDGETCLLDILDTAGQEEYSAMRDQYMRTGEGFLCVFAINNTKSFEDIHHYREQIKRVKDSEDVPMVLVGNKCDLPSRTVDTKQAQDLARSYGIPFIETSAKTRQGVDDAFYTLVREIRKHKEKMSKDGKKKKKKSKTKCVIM
T1 sequence (P01116 1-188 isoform P01116-2 G12D): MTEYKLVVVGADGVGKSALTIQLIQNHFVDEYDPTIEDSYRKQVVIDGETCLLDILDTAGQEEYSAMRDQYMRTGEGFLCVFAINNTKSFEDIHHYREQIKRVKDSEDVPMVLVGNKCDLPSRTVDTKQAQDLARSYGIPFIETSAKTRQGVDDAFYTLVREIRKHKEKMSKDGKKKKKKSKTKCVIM
T4 sequence (P01116 1-188 isoform P01116-2 G12S): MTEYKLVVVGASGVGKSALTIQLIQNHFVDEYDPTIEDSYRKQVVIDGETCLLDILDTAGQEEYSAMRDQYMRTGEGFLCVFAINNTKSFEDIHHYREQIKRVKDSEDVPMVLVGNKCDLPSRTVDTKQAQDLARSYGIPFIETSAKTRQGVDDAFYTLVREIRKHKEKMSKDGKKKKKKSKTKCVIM

Row | IC50 (KRAS G12D) | IC50 (KRAS WT) | IC50 (KRAS G12V) | IC50 (KRAS G12S) | IC50 (MiaPaca2 cells) | Compound
1 | < 500 nM | < 500 nM | < 500 nM | < 500 nM | ≤ 500 nM | CCN(c1nc(OC[C@@]23CCCN2C[C@H](F)C3)nc2c(F)c(-c3ccc(F)c4sc(N)c(C#N)c34)c(C(F)(F)F)cc12)[C@@H]1CCN(C(=O)n2cnc(F)n2)[C@@H]1C (atropisomer, axis not shown; (aS)) [Compound 125, 2-amino-4-((S)-4-(ethyl((2R,3R)-1-(3-fluoro-1H-1,2,4-triazole-1-carbonyl)-2-methylpyrrolidin-3-yl)amino)-8-fluoro-2-(((2R,7aS)-2-fluorotetrahydro-1H-pyrrolizin-7a(5H)-yl)methoxy)-6-(trifluoromethyl)quinazolin-7-yl)-7-fluorobenzo[b]thiophene-3-carbonitrile]
2 | < 500 nM | < 500 nM | < 500 nM | < 500 nM | ≤ 500 nM | CCN(c1nc(OC[C@@]23CCCN2C[C@H](F)C3)nc2c(F)c(-c3ccc(F)c4sc(N)c(C#N)c34)c(C(F)(F)F)cc12)[C@@H]1CCN(C(=O)n2ccnc2C)[C@@H]1C [Compound 148, 2-amino-4-(4-(ethyl((2R,3R)-2-methyl-1-(2-methyl-1H-imidazole-1-carbonyl)pyrrolidin-3-yl)amino)-8-fluoro-2-(((2R,7aS)-2-fluorotetrahydro-1H-pyrrolizin-7a(5H)-yl)methoxy)-6-(trifluoromethyl)quinazolin-7-yl)-7-fluorobenzo[b]thiophene-3-carbonitrile]
3 | < 500 nM | < 500 nM | < 500 nM | < 500 nM | ≤ 500 nM | Cc1ncn(C(=O)N2CC3CCN(c4nc(OC[C@@]56CCCN5C[C@H](F)C6)nc5c(F)c(-c6ccc(F)c7sc(N)c(C#N)c67)c(Cl)cc45)C3C2)c1C (stereo partly drawn) [Compound 140, 2-amino-4-(6-chloro-4-(5-(4,5-dimethyl-1H-imidazole-1-carbonyl)hexahydropyrrolo[3,4-b]pyrrol-1(2H)-yl)-8-fluoro-2-(((2R,7aS)-2-fluorotetrahydro-1H-pyrrolizin-7a(5H)-yl)methoxy)quinazolin-7-yl)-7-fluorobenzo[b]thiophene-3-carbonitrile]
4 | < 500 nM | < 500 nM | < 500 nM | < 500 nM | ≤ 500 nM | Cc1cn(C(=O)N2CC[C@@]23CCN(c2nc(OC[C@@]45CCCN4C[C@H](F)C5)nc4c(F)c(-c5ccc(F)c6sc(N)c(C#N)c56)c(Cl)cc24)C3)cn1 (atropisomer, axis not shown; (aS)) [Compound 107, (R)-2-amino-4-(6-chloro-8-fluoro-2-(((2R,7aS)-2-fluorotetrahydro-1H-pyrrolizin-7a(5H)-yl)methoxy)-4-((R)-1-(4-methyl-1H-imidazole-1-carbonyl)-1,6-diazaspiro[3.4]octan-6-yl)quinazolin-7-yl)-7-fluorobenzo[b]thiophene-3-carbonitrile]
5 | < 500 nM | < 500 nM | < 500 nM | < 500 nM | ≤ 500 nM | CCN(c1nc(OC[C@@]23CCCN2C[C@H](F)C3)nc2c(F)c(-c3ccc(F)c4sc(N)c(C#N)c34)c(Cl)cc12)[C@@H]1CCN(C(=O)n2cnc(C)c2)[C@@H]1C [Compound 108, 2-amino-4-(6-chloro-4-(ethyl((2R,3R)-2-methyl-1-(4-methyl-1H-imidazole-1-carbonyl)pyrrolidin-3-yl)amino)-8-fluoro-2-(((2R,7aS)-2-fluorotetrahydro-1H-pyrrolizin-7a(5H)-yl)methoxy)quinazolin-7-yl)-7-fluorobenzo[b]thiophene-3-carbonitrile]
